Assay results reported in patent publication US4435404A, “Carbostyril derivatives” (priority 1980, dated 1984).

Assays:
[1] = system: arterial papillary muscle; test: Positive inotropic effect, blood-perfused arterial papillary muscle; set-up: species or system dog; conditions: Canis lupus familiaris, into septal artery, read-out: Increasing of inotropic
Procedure: Positive inotropic effects of the novel carbostyril derivatives of the present invention were tested according to a method described by M. Endoh and K. Hashimoto, in "American Journal of Physiology", Vol. 218, No. 5, May, 1970, pages 1459-1463 as follows:
Adult bastard dogs of both sexes, weighing 8-12 kg, were anesthetized with pentobarbital-Na at a rate of 30 mg/kg by intraveneous administration. After another intraveneous administration of sodium heparin, 1,000 μ/kg, the test dog was sacrificed by blood letting. The heart of the dog was excised and immediately plunged into Locke's solution, then the arterial papillary muscle was excised out with interventicular septum. The septal artery was carefully isolated and cannulated with a polyethylene cannula and was ligated with thread. Septal arteries those of connected to other than the arterial papillary muscle were ligated with thread. Next, the donor adult bastard dogs, weighing 18-27 kg, were anesthetized with pentabarbital-Na (30 mg/kg, intraveneous injection), and further treated with intravenous administration of sodium heparin (1,000 μ/kg). The arterial papillary muscle was perfused through the septal artery being cannulated with the polyethylene cannula with the blood conducted from the carotid artery of the donor dog by aid of Peristaric pump. The perfusion pressure was maintained at 100 mmHg constantly. Then the muscle was electrically stimulated by an electronic stimulator through bipolar electrodes in contact with the interventicular septum. The strength of stimulation was 2 X (the minimum value for appearing the action), frequency 2 Hz, pulse duration 2 msec.
The isometric contraction generated was measured through a force-displacement transducer. The amount of blood flow in the coronary arteries was measured by determining the amount of the blood flow conducted to the septal artery by electromagnetic flow meter. All the data were recorded on an ink-writing recorder.
A solution containing a compound to be tested was injected into the septal artery through the rubber tube connected close to the shunk of the polyethylene cannula, in an amount of 10-30 μl.
The results obtained is shown in Table 4, in which the increasement (%) of contraction is indicated as the ratio of the contractions before and after the administration (injection) of the solution containing the test compound.

[2] = system: Deoxycorticosteroneacetate (DOCA)/saline hypertension rats (DHR); test: Hypotensive effect, Tail-cuff method, DHR; type: in vivo, rat; conditions: 30 mg/kg oral, mean value ± standard deviation
Procedure: Hypotensive effect of the compounds were measured by determining the maximum blood pressure of the test animals according to a procedure of Tail-cuff method.
Test animals used were the following two types.
(2) Deoxycorticosteroneacetate (DOCA)/saline hypertension rats (DHR)
Wistar strain male rats having 150-170 g of body weight, were anesthetized with ether and the left-side kidney was enucleated. One (1) week after the operation, 10 mg/kg of DOCA was injected subcutaneously once a week and 1% NaCl aqueous solution was given as drinking water. Five (5) weeks after the operation, rats having the maximum blood pressure over 150 mmHg were selected and used as test animals which were abstained from food for overnight.
Each of compounds to be tested were administered orally and the blood pressure was measured before the administration and 1, 2, 4, 6 and 8 hours after the administration. The blood pressure was measured by using Recorder (Rectihoriz type 8S, San-ei Instrument) and Electrosthygmomanometer PE-300 (Macro Bio-systems, Houston, Tex.).

**Q.** Which results are given for `O=C(CCCOc1ccc2[nH]c(=O)ccc2c1)N(CCO)C1CCCCC1` [No. 1, 6-{3-[N-(2-hydroxyethyl)-N-cyclohexylaminocarbonyl]propoxy}carbostyril]?
**A.** activation at 3 nmol ([1]; dosage 3 n mol): 8.2%; activation at 30 nmol ([1]; dosage 30 n mol): 54.5%; Maximum blood pressure after the administration (difference) ([2]; 1 hour): -46.0 ± 11.7 mmHg; Maximum blood pressure after the administration (difference) ([2]; 2 hours): -42.6 ± 6.5 mmHg; Maximum blood pressure after the administration (difference) ([2]; 4 hours): -37.6 ± 5.2 mmHg; Maximum blood pressure after the administration (difference) ([2]; 6 hours): -34.4 ± 10.5 mmHg; Maximum blood pressure after the administration (difference) ([2]; 8 hours): -29.0 ± 10.5 mmHg
